Assay results as given in US9790218B2, “Small molecule activators of calcium-activated chloride channels and methods of use” (The Regents of the University of California, priority 2011, dated 2017).

How the values were obtained:
[1] = test system: CF human bronchial epithelial (CF HBE) cells; test: Short-circuit current in CF HBE cells; assay type: cell-based
Method: FIG. 5A-B. Airway epithelial chloride secretion. FIG. 5A. Short-circuit current in CF HBE cells. Eact and UTP (100 μM) were added in control (left) and IL-4 (10 ng/ml, 24 h, middle) treated CF HBE cells. (right) Summary of Eact-induced, T16Ainh-A01-sensitive peak current (mean±S.E., n=6-8, * P<0.05). ENaC was inhibited by 10 μM amiloride. FIG. 5B. Eact (10 μM) and UTP (100 μM) induced CaCC Cl^− current measured in primary cultures of non-CF human tracheal gland (HTG) serous cells. (left and gmiddle) TMEM16A, CFTR and ENaC were inhibited by pretreatment with T16Ainh-A01, CFTRinh-172 and amiloride, respectively. Inset: TMEM16A immunoblot in whole cell homogenates of CF HBE and HTG cells. (right) Summary of UTP and Eact-induced peak current in the presence and absence of T16Ainh-A01 (mean±S.E., n=3, * P<0.05).
Tracheal and bronchial tissues were obtained from non-CF and CF patients following lung transplantation or from postmortem examinations performed within 24 h after death. […]
(§1) Snapwell inserts containing TMEM16A-expressing FRT, HBE, CF HBE or HTG cells were mounted in Ussing chambers (Physiologic Instruments, San Diego, Calif.). […] Apical membrane current (for FRT cells) and short-circuit current were measured using an EVC4000 Multi-Channel V/I Clamp (World Precision Instruments, Sarasota, Fla.) and recorded using PowerLab/8sp (AD Instruments, Castle Hill, Australia).

[2] = test system: non-CF human tracheal gland (HTG) serous cells; test: Short-circuit current in human tracheal gland (HTG) serous cells; assay type: cell-based; conditions: T16Ainh-A01 pretreatment
Method: FIG. 5A-B. Airway epithelial chloride secretion. FIG. 5A. Short-circuit current in CF HBE cells. Eact and UTP (100 μM) were added in control (left) and IL-4 (10 ng/ml, 24 h, middle) treated CF HBE cells. (right) Summary of Eact-induced, T16Ainh-A01-sensitive peak current (mean±S.E., n=6-8, * P<0.05). ENaC was inhibited by 10 μM amiloride. FIG. 5B. Eact (10 μM) and UTP (100 μM) induced CaCC Cl^− current measured in primary cultures of non-CF human tracheal gland (HTG) serous cells. (left and gmiddle) TMEM16A, CFTR and ENaC were inhibited by pretreatment with T16Ainh-A01, CFTRinh-172 and amiloride, respectively. Inset: TMEM16A immunoblot in whole cell homogenates of CF HBE and HTG cells. (right) Summary of UTP and Eact-induced peak current in the presence and absence of T16Ainh-A01 (mean±S.E., n=3, * P<0.05). […]
as §1, with “Australia). […]” for “Australia).”

## CCc1c(C)nc(SCC(=O)Nc2nc(-c3ccc(OC)cc3)cs2)[nH]c1=O [T16Ainh-A01, reference compound]
[1]
  block of Eact-induced Cl^− current in IL-4 treated CF bronchial cells: blocked
[2]
  effect of pretreatment on UTP- and Eact-induced Cl^− current: largely abolished
